Assay results reported in article PMC6715247 (PLoS Neglected Tropical Diseases, 2019).
Entries after “also recorded” stand apart in the source; their conditions may differ. Read-outs that look alike come from different tables or passages of the source.

Assays:
[1] = tested on: E. histolytica trophozoite; design: method as in PMID 30087858; conditions: ref [18], cited from earlier work; for Effect on trophozoite proliferation: 10 μM
[2] = tested on: sulfolipids synthesized in E. histolytica trophozoites; test: Metabolic labeling by [35S]-labeled sulfate, sulfolipid synthesis; format: cell-based, Entamoeba histolytica; conditions: 6 h treatment; A-D-11, A-H-11 6.25-100 μM, E-H-05 0.5-8 μM
Experimental: Metabolic labeling of E. histolytica trophozoites by [^35S]-labeled sulfate was performed essentially as described previously with slight modification. […] Each 10 mM stock solution (in DMSO) of the three commercially sourced compounds was serially diluted by 2-fold decrements with DMSO. The resulting diluted solutions were then added to 0.75 ml cell suspension in BI-S-33 medium at 1/100 (vol/vol). […] Note that DMSO was used as a solvent control at 1%, which was the DMSO concentration in all samples analyzed. [^35S]-labeled sulfate (45 μCi) was added 4 h after the start of treatments and labeled cells were harvested at 6 h. […] Each spot on the TLC plates was quantified using a Fuji imaging analyzer and Multi Gauge 2.2 software (FLA-7000; Fujifilm, Japan). The total cell protein was estimated using a Pierce BCA protein assay kit (Thermo Scientific, Rockford, IL, USA).

[3] = tested on: E. histolytica trophozoite; test: E. histolytica trophozoite proliferation assay (flow cytometry); format: cell-based; conditions: Entamoeba histolytica; average ± SD, three independent experiments; read-out: Trophozoite proliferation IC50
Experimental: (§1) E. histolytica trophozoite proliferation and E. invadens cyst formation assays were performed essentially as described in [18] except that in addition to 0–72 and 48–72 h cyst formation assays, 0–96 and 0–120 h, and 48–96 and 48–120 h assays were also performed.

[4] = molecular target: T1, rHsAPSK (recombinant APSK domain of HsPAPSS1) (Homo sapiens, UniProt O43252); test: 96-well plate-based in vitro APSK activity assay (coupling assay, NADH decrease); format: biochemical; conditions: 10 μM compound, 1% DMSO
T1 construct: APSK domains of HsPAPSS1 (Ala^25—Pro^227) and -2 (Ser^15—Pro^217); His tag (pCold-I vector); made in house; host or cells: E. coli BL21(DE3)
T1 sequence (O43252 25-227): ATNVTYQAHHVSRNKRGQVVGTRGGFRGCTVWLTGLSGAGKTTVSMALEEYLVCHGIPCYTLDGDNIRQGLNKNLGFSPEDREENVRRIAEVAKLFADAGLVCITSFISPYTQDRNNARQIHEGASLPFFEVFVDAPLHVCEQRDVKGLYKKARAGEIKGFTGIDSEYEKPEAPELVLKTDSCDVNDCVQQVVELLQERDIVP
Experimental: (§2) A coupling assay to measure APSK activity was performed as described except a 96-well plate was used. Briefly, each well contained 100 μL reaction mixture, which consisted of 90 μL coupling solution and 10 μL of either compound solution (see below) or 10% DMSO. […] The coupling solution was 100 mM Tris/HCl (pH 8.0), 1 mM MgCl2, 1 mM KCl, 5 mM Mg2ATP, 1 mM NADH, 1 mM PEP, 1 U NP1, 3.5 U PK, 5.0 U LDH, and APSK (≤3 μL). […] As controls, in place of purified APSK solution (rEhAPSK or rHsAPSK), 3 μL of a blank [50 mM Tris/HCl buffer (pH 8.0)], a solvent (elution buffer), a mock (rEhSF2), or denatured APSK suspensions obtained by heat-treatment, were added to the coupling solution. The activity of each sample was calculated after removing the baseline value of the blank control.
(§3) For the inhibition assay, 2 μL of each stock solution, which were distributed in a 96-well plate, were transferred to a new plate to make a replicate. After adding 18 μL deionized water to each well and mixing, 10 μL of each diluted solution (100 μM compound solution) was again transferred into a new 96-well plate to make a replicate. Then 90 μL of the coupling solution prepared above was dispensed into each well containing the previously added 10 μL of 100 μM compound solution. As a solvent control, 10% DMSO solution (vol/vol-deionized water) was used in place of compound solution. The final concentrations of each compound and DMSO in a well were 10 μM and 1% (vol/vol), respectively. The assays were performed independently three times, and data are shown as the mean with SD.
(§4) In all assays, prepared mixtures in a plate were mixed on a vibrating table equipped with either an EnVision or ARVO plate reader (PerkinElmer) before starting the reaction.

[5] = molecular target: rEhAPSK (Entamoeba histolytica, UniProt C4LUW9); test: as above; format: biochemical; conditions: for Inhibition of rEhAPSK activity: 10 μM compound, 1% DMSO
Experimental: as §2, §3
One millimolar stock solutions used were either thawed in a replicate (96-well plate) prepared in [18] […] Subsequently, 3.4 μL of the 1 mM and each diluted stock solution were dispensed into wells of a 96-well culture plate, containing 30.6 μL deionized water and mixed well by pipetting. Ten microliters of all resulting solutions were then dispensed into wells of a 96-well plate to make triplicates and then used as described for the above inhibition assay. 10% DMSO solution was used as an inhibitor-free control. Note that the final DMSO concentration in any well was 1% (vol/vol).
as §4

[6] = WST-1-based cytotoxicity assay; conditions: human, human foreskin fibroblast (HFF) cells
Experimental: (§5) Human foreskin fibroblast (HFF) cells (purchased from ATCC) were routinely maintained in DMEM supplemented with 10% fetal bovine serum, 100 units/ml penicillin, […] and 1% GlutaMAX™-I (Thermo Fisher Scientific, Waltham, MA). A WST-1-based cytotoxicity assay was performed as previously described. In detail, HFF cells were plated at 1.0×10^4 cells/100 μL medium in each well of a 96-well culture plate, and incubated overnight at 37°C in a 5% CO2 atmosphere to allow cells to adhere to the wells. […] Numbers of viable cells were then assessed using the Premix WST-1 Cell Proliferation Assay System (Takara). […] DMSO was added at 1% as a negative control whereas ionomycin was added at 30 μM as a positive control. As a blank, the above culture medium was used in place of the solutions added.

[7] = tested on: Human foreskin fibroblast (HFF) cells; test: WST-1-based cytotoxicity assay; conditions: for Number of viable HFF cells relative to 1% DMSO control (set as 100%): 10 μM
Experimental: as §5

[8] = tested on: E. invadens cyst formation; test: E. invadens cyst formation (encystation) assay (flow cytometry); format: cell-based, Entamoeba invadens; conditions: for Number of cysts formed at 72 h: compound added at 48 h post-induction (48–72 h)
Experimental: as §1

[9] = tested on: E. invadens cyst formation; design: method as in PMID 30087858; conditions: ref [18], cited from earlier work; for Effect on cyst formation: 10 μM
[10] = tested on: E. histolytica trophozoites; test: Morphological analysis by phase contrast microscopy; format: cell-based, Entamoeba histolytica; conditions: 6 h treatment
Source text: Cell morphology was then observed by phase contrast microscopy using a Primovert microscope (Carl Zeiss, Germany) with a COMS camera (E3CMOS12000KPA, ToupTek, China). […] Cell images were captured using ToupView software (ToupTek).

[11] = tested on: recombinant EhTrxR; design: method as in PMID 22610278, PMID 26876147; conditions: ref [19], [59]; cited from earlier work

rEhAPSK, sequence (C4LUW9 entry or part of it): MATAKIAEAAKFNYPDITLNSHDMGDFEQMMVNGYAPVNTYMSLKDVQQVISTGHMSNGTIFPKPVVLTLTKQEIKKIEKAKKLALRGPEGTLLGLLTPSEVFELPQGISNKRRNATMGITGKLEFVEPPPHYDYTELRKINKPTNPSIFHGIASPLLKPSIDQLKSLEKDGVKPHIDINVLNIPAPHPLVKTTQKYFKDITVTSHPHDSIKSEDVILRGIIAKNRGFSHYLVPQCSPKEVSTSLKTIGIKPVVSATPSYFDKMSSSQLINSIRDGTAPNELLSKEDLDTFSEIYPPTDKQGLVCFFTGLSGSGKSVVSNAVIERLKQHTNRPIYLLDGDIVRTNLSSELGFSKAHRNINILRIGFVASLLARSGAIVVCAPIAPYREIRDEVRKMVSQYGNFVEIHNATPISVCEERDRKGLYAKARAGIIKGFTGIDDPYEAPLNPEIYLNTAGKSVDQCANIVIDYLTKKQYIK

For O=C(Nc1nc(-c2ccccn2)cs1)c1cncn1-c1ccccc1 [A-H-11, 3-phenyl-N-[4-(2-pyridyl)thiazol-2-yl]-imidazole-4-carboxamide], the “Effect on trophozoite proliferation” value [1] is given as “negative effects”, the “Amount of sulfolipids synthesized” value [2] is given as “dose-dependently reduced the amount of sulfolipids synthesized” and the IC50 [3] is given as 4000 ± 1050 nM. The “Inhibition of rHsAPSK activity” value [4] was “none showed any inhibitory activity against HsAPSK”, the “Inhibition of rEhAPSK activity” value [5] was “reproducibly inhibited rEhAPSK activity” and the IC50 ([5]; rEhAPSK, average ± SD, more than three independent experiments, read-out: APSK activity IC50) was 6750 ± 1350 nM. The IC50 at 48 h [6] was over 100000 nM, the “Number of viable HFF cells relative to 1% DMSO control (set as 100%)” value ([7]; 48 h) was “did not affect numbers of viable cells; also recorded: did not influence numbers of viable HFF cells” and the “Number of viable HFF cells relative to DMSO control” value ([7]; 100 μM, 48 h) was “did not influence numbers of viable HFF cells”. For the same compound, the IC50 ([8]; Entamoeba invadens, 0–72 h, average ± SD, three independent experiments, read-out: Cyst formation IC50) was 2350 ± 132 nM, the “Number of cysts formed at 72 h” value [8] was “neither A-D-11 nor A-H-11 affected the number of cysts formed at 72 h” and the “Effect on cyst formation” value [9] was “negative effects”. The “Concentration range that produced trophozoite morphology similar to DMSO control” value [10] was 6.25–100 μM.

For auranofin [E-H-05, reference compound], the “Effect on trophozoite proliferation” value [1] is listed as “negative effects”, the IC50 ([1]; average ± SD, read-out: Trophozoite proliferation IC50) is listed as 650 ± 180 nM and the “Amount of sulfolipids synthesized” value [2] is listed as “dose-dependently reduced the amount of sulfolipids synthesized”. The IC50 [11] was 400 nM, the “Inhibition of rHsAPSK activity” value [4] was “none showed any inhibitory activity against HsAPSK” and the “Inhibition of rEhAPSK activity” value [5] was “reproducibly inhibited rEhAPSK activity”. For the same compound, the “Number of viable HFF cells relative to 1% DMSO control (set as 100%)” value ([7]; 48 h) was under 10%, the IC50 ([7]; read-out: Cytotoxicity (HFF) IC50, 48 h exposure, WST-1) was 4000 ± 1400 nM and the “Number of cysts formed at 72 h” value [8] was “did not affected the number of cyst formed at 72 h”. For the same compound, the “Effect on cyst formation” value [9] was “negative effects” and the IC50 ([9]; average ± SD) was 1730 ± 700 nM.
